Measured values taken from patent publication US20050250093A1, “Hepatitis c virus sub-genomic replicons” (priority 2002, published 2005).

Columns and labels:
Huh-7 cells [1] = experiment: Stable replication / G418 resistance after electroporation of replicon RNA into Huh-7 cells; assay type: cell-based, human; settings: replicon RNA prepared in vitro, G418 selection
Protocol: In the present invention, certain chimeric replicon constructs were generated from pHCVrep1b(BB7) with sequences substituted with either type 1aHCV H77 sequence or by HCV type 1b J4 strain sequence. […] The methods for constructing these replicons are described herein.
RNA transcribed from the above replicon DNA was electroporated into Huh-7 cells according to the procedures in the examples. G418 resistant cells were obtained by incubating the cells in G418-containing media. Once the cells were amplified, total cellular protein was separated on SDS-PAGE and probed by NS5A serum to assess whether HCV proteins were expressed. As predicted, all three replicon cell lines expressed NS5A as shown on figure. Genomic DNA and RNA were also isolated from each replicon cell lines. PCR reactions on genomic DNA were carried out to assess the possibility that the G418 resistance was due to expression of the phosphatransferase from integrated neo resistant gene into the Huh-7 cell genome. […] Therefore, the date indicate that it is unlikely that the resistance is due to integration of residue DNA in our RNA preparation into the genome of Huh-7 cells.
Five […]g of replicon RNA was electroporated into 5×10^6 cells of the hepatoma cell line, Huh-7. […] Huh-7 cells were pelleted, washed, counted and resuspended to a final concentration of 1×10^7 cells/ml in Opti-MEM media (Invitrogen). […]

Huh-7 cells [2] = experiment: Analysis of replicon copy number by TaqMan; assay type: cell-based, human; settings: real-time PCR with primers and probes in the neo gene on total RNA from replicon cells
Protocol: Next, replicon RNA was quantified by TaqMan. Real-time PCR was conducted with primers and probes in the neo gene on total RNA isolated from the replicon cells and on standard neo containing DNA. Copy numbers of the replicon were calculated based on standard curve generated from known amount of in vitro transcribed RNA. J4 M/S contained about 147 copies/cell, BB7-F1 contained 57 copies/cell, HCV 1a replicon has 165 copies/cell, BB7/H77NS5B has 29 copies/cell. For a positive control, HCV BB7 replicon that has 1500 copies/cell while Huh-7 cells served as negative controls.
Cells were trypinized and counted to determine cell number. The total cellular RNA was isolated using RNeasy Mini Kit (Qiagen) following the manufacturer's protocol. The RNA was stored at −80° C. or assayed by TaqMan quantitative RT-PCR. For analysis by TaqMan PCR, a master mix was prepared using TaqMan EZ RT-PCR Kit (Applied Biosystems #403028), TaqMan PDAR Control Reagent Human Cyclophilin (Applied Biosystems #4310883E), custom primer Neo^R fwd CCG GCT ACC TGC CCA TTC [SEQ ID NO:28] […] Data was analyzed by leaving the baseline to default level on both layers, and set a threshold to an equal value for both dye layers. […] The copy number for each replicon sample was calculated by taking the sample's Ct value, minus the line intercept, divided by the slope of the line.

type 1a replicon system = experiment: Susceptibility of the type 1a replicon system to interferon and antiviral agents; assay type: cell-based, HCV; settings: type 1a replicon vs type 1b replicon system

Substance	generation of stable cell lines / stable replication after transfection into Huh-7 cells (Huh-7 cells [1])	replicon copy number (Huh-7 cells [2])	susceptibility compared with the type 1b replicon system (type 1a replicon system)
HCV 1a replicon	able to stably replicate and confer resistance to G418	165 copies/cell	
interferon			similar
